For two molecules, inhibition and Activity results are on record in ChEMBL document CHEMBL5649167, “The SUV4-20 inhibitor A-196 verifies a role for epigenetics in genomic integrity” (Nat Chem Biol, 2017).

Calls of active or inactive are those of the source. The rule behind the calls is not given here.

Assay [1] has as its target RAF proto-oncogene serine/threonine-protein kinase (Homo sapiens) (UniProt P04049). Nature of the assay: Inhibition of human RAF-1 at 10 uM relative to control.
Assay [2] deals with MAP kinase-interacting serine/threonine-protein kinase 2 (Homo sapiens) (UniProt Q9HBH9). Description: Inhibition of human MNK2 at 10 uM relative to control.
Assay [3] relates to U2OS. Nature of the assay: Induction of DNA repair in human U2OS cells assessed as inhibition in 53BP1 foci formation at 1 uM measured after 24 hrs in the presence of 10 Gy of ionizing radiation by immunofluorescence analysis. The assay is classed as functional, cell-based.
Assay [4] concerns the target Endothelin-1 receptor (Homo sapiens) (UniProt P25101). Nature of the assay: Inhibition of human ETA at 10 uM relative to control.
Assay [5] has as its target Histone-lysine N-methyltransferase NSD2 (Homo sapiens) (UniProt O96028). Nature of the assay: Inhibition of NSD2 (unknown origin) at 1 to 10 uM incubated for 1 hrs by scintillation proximity assay. The note with it: dose 1-10 µM.
The species entered for assay [6] is Homo sapiens. Nature of the assay: Inhibition of DNMT3B/3L (unknown origin) at 1 to 10 uM incubated for 1 hrs by scintillation proximity assay. To be noted: dose 1-10 µM. (In general: Scintillation proximity formats need no separation of bound from free tracer.)
The target of assay [7] is Protein arginine N-methyltransferase 3 (Homo sapiens) (UniProt O60678). Description: Inhibition of PRMT3 (unknown origin) using Biotin-tagged H4K20me1 and [3H-SAM] as substrate at 1 to 10 uM incubated for 2 hrs by scintillation proximity assay. The note with it: dose 1-10 µM.
Assay [8] has as its target Histone-lysine N-methyltransferase SUV39H1 (Homo sapiens) (UniProt O43463). Description: Inhibition of SUV39H1 (unknown origin) using Biotin-tagged H4K20me1 and [3H-SAM] as substrate at 1 to 10 uM incubated for 2 hrs by scintillation proximity assay. To be noted: dose 1-10 µM.
In assay [9] the target is Proto-oncogene tyrosine-protein kinase Src (Homo sapiens) (UniProt P12931). Nature of the assay: Inhibition of human Src at 10 uM relative to control.
Sequence of Proto-oncogene tyrosine-protein kinase Src (Homo sapiens) (P12931 2-536 limits assumed): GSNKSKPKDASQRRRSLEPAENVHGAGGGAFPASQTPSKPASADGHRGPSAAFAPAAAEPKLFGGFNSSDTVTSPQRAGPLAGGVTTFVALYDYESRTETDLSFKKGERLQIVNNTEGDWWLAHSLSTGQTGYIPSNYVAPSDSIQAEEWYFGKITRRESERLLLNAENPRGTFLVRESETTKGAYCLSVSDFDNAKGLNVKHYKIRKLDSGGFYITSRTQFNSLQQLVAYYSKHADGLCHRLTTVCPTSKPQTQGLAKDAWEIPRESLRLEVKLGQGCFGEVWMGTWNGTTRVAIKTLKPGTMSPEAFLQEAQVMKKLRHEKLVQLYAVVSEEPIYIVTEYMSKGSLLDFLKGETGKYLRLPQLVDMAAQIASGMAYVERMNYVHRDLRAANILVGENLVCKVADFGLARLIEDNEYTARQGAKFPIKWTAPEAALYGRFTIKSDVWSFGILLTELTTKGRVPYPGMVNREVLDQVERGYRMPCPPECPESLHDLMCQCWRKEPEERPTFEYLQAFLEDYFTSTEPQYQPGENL
The subject of assay [10] is U2OS. Nature of the assay: Inhibition of colony formation in human U2OS cells at 1 uM incubated for 48 hrs in the presence of CPT by cell clonogenic assay. The assay is classed as functional, cell-based.
Assay [11] has as its target Aurora kinase A (Homo sapiens) (UniProt O14965). Description: Inhibition of human AurA at 10 uM relative to control.
Assay [12] concerns the target Histone-lysine N-methyltransferase 2C (Homo sapiens) (UniProt Q8NEZ4). Description: Inhibition of MLL3 (unknown origin) using Biotin-tagged H4K20me1 and [3H-SAM] as substrate at 1 to 10 uM incubated for 2 hrs by scintillation proximity assay. To be noted: dose 1-10 µM.
The target in assay [13] is Epidermal growth factor receptor (Homo sapiens) (UniProt P00533). Nature of the assay: Inhibition of human EGFR at 10 uM relative to control.
For assay [14], the system named is U2OS. Nature of the assay: Induction of DNA repair in human U2OS cells expressing I-SceI reporter assessed as decrease in H4K20me3 level by Western blot analysis. It is filed as functional, cell-based. (Immunoblotting shows a protein as a band on a membrane.)
For assay [15], the target named is N-lysine methyltransferase KMT5A (Homo sapiens) (UniProt Q9NQR1). Nature of the assay: Inhibition of SETD8 (unknown origin) using Biotin-tagged H4K20me1 and [3H-SAM] as substrate at 1 to 10 uM incubated for 2 hrs by scintillation proximity assay. The note with it: dose 1-10 µM.
For assay [16], the target named is Histone-lysine N-methyltransferase EHMT2 (Homo sapiens) (UniProt Q96KQ7). Nature of the assay: Inhibition of G9a (unknown origin) using Biotin-tagged H4K20me1 and [3H-SAM] as substrate at 1 to 10 uM incubated for 2 hrs by scintillation proximity assay. To be noted: dose 1-10 µM.
The test system of another assay is HeLa. Nature of the assay: Antiproliferative activity against human HeLa cells assessed as inhibition in H4K20me3 expression level for 21 doublings by Western blot analysis. The assay is classed as functional, cell-based.
Assay [17] concerns the target Histone-lysine N-methyltransferase PRDM9 (Homo sapiens) (UniProt Q9NQV7). Description: Inhibition of PRDM9 (unknown origin) using Biotin-tagged H4K20me1 and [3H-SAM] as substrate at 1 to 10 uM incubated for 2 hrs by scintillation proximity assay. The note with it: dose 1-10 µM.
For assay [18], the target named is Hepatocyte growth factor receptor (Homo sapiens) (UniProt P08581). Description: Inhibition of human c-Met at 10 uM relative to control.
The target in assay [19] is Glycogen synthase kinase-3 beta (Homo sapiens) (UniProt P49841). Nature of the assay: Inhibition of human GSK3beta at 10 uM relative to control.
Sequence of Glycogen synthase kinase-3 beta (Homo sapiens) (P49841 whole entry, looked up): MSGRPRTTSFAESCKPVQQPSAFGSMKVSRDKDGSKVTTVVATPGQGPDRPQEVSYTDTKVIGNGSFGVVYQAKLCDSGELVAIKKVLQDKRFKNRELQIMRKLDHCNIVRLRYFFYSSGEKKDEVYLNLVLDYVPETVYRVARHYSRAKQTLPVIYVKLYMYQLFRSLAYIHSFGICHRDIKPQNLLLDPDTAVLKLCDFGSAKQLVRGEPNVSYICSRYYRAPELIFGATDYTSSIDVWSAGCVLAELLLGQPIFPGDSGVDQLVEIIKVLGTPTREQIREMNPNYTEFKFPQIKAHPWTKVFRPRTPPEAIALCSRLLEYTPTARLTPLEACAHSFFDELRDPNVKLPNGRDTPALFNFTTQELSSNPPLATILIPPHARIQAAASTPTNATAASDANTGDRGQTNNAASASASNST
For assay [20], the target named is Histone-lysine N-methyltransferase 2A (Homo sapiens) (UniProt Q03164). Description: Inhibition of MLL1 (unknown origin) using Biotin-tagged H4K20me1 and [3H-SAM] as substrate at 1 to 10 uM incubated for 2 hrs by scintillation proximity assay. The note with it: dose 1-10 µM.
Assay [21] has as its target RAC-alpha serine/threonine-protein kinase (Homo sapiens) (UniProt P31749). Description: Inhibition of human Akt1 at 10 uM relative to control.
Assay [22] has as its system U2OS. Description: Induction of DNA repair in human U2OS cells expressing I-SceI reporter assessed as change in HDR-mediated repair at 1 uM by flow cytometry analysis. It is filed as functional, cell-based. (Flow cytometry measures light scatter and fluorescence of single cells or particles in a stream.)
The target of assay [23] is Serine/threonine-protein kinase Chk1 (Homo sapiens) (UniProt O14757). Description: Inhibition of human CHK1 at 10 uM relative to control.
The target of assay [24] is Histone-lysine N-methyltransferase SMYD3 (Homo sapiens) (UniProt Q9H7B4). Description: Inhibition of SMYD3 (unknown origin) using Biotin-tagged H4K20me1 and [3H-SAM] as substrate at 1 to 10 uM incubated for 2 hrs by scintillation proximity assay. The note with it: dose 1-10 µM.
In assay [25] the test system is U2OS. Nature of the assay: Inhibition of colony formation in human U2OS cells at 1 uM incubated for 48 hrs in the presence of aphidicolin by cell clonogenic assay. It is filed as functional, cell-based.
Assay [26] has as its target Insulin receptor (Homo sapiens) (UniProt P06213). Description: Inhibition of human IRK at 10 uM relative to control.
The target in assay [27] is Sodium-dependent serotonin transporter (Homo sapiens) (UniProt P31645). Nature of the assay: Inhibition of human SERT expressed in stable HEK cells at 10 uM relative to control. It is filed as cell-based.
The target of assay [28] is Serine/threonine-protein kinase pim-2 (Homo sapiens) (UniProt Q9P1W9). Description: Inhibition of human Pim2 at 10 uM relative to control.
For assay [29], the system named is U2OS. Nature of the assay: Cytotoxicity against human U2OS cells assessed as cell viability at 1.5 to 100 uM incubated after 72 hrs. It is filed as functional, cell-based. The note with it: dose 1.5-100 µM.
The target in assay [30] is Histone-lysine N-methyltransferase ASH1L (Homo sapiens) (UniProt Q9NR48). Nature of the assay: Inhibition of ASH1L (unknown origin) at 1 to 10 uM incubated for 1 hrs by scintillation proximity assay. The note with it: dose 1-10 µM.
The subject of assay [31] is U2OS. Description: Inhibition of colony formation in human U2OS cells at 1 uM incubated for 48 hrs in the presence of MMC by cell clonogenic assay. It is filed as functional, cell-based.
The target of assay [32] is Sigma non-opioid intracellular receptor 1 (Homo sapiens) (UniProt Q99720). Nature of the assay: Inhibition of human Sigma non-opioid intracellular receptor 1 at 10 uM relative to control. It is filed as cell-based.
Sequence of Sigma non-opioid intracellular receptor 1 (Homo sapiens) (Q99720 whole entry): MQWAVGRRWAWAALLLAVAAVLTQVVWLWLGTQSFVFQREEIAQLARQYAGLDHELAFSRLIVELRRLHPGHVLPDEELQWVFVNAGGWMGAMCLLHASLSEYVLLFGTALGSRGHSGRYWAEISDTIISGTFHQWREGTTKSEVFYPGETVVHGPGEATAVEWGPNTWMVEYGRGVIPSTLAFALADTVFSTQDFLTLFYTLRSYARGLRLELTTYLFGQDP
Assay [33] is filed under the species Homo sapiens. Nature of the assay: Inhibition of human Gastric receptor I at 10 uM relative to control.
Assay [34] concerns the target 5-hydroxytryptamine receptor 1E (Homo sapiens) (UniProt P28566). Description: Inhibition of human 5-ht1e in stable HEK cells at 10 uM relative to control. It is filed as cell-based.

Sequence of RAF proto-oncogene serine/threonine-protein kinase (Homo sapiens) (P04049 whole entry): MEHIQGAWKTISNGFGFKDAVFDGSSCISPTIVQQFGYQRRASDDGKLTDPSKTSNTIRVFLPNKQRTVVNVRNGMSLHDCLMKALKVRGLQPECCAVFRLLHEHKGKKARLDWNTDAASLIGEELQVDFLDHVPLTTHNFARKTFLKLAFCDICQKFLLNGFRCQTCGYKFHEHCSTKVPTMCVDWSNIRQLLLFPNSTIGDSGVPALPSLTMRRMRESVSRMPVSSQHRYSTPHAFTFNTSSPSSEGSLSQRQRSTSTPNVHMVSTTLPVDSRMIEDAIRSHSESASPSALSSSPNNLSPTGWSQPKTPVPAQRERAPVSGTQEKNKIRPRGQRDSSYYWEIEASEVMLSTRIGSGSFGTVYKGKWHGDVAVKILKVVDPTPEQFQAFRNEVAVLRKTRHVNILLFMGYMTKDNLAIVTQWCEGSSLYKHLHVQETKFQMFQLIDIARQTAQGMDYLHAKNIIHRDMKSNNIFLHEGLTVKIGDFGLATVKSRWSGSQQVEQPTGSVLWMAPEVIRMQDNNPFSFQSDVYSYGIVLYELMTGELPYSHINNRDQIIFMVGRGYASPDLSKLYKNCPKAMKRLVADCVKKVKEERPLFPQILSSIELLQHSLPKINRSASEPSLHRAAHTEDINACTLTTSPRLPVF
Sequence of RAC-alpha serine/threonine-protein kinase (Homo sapiens) (P31749 whole entry): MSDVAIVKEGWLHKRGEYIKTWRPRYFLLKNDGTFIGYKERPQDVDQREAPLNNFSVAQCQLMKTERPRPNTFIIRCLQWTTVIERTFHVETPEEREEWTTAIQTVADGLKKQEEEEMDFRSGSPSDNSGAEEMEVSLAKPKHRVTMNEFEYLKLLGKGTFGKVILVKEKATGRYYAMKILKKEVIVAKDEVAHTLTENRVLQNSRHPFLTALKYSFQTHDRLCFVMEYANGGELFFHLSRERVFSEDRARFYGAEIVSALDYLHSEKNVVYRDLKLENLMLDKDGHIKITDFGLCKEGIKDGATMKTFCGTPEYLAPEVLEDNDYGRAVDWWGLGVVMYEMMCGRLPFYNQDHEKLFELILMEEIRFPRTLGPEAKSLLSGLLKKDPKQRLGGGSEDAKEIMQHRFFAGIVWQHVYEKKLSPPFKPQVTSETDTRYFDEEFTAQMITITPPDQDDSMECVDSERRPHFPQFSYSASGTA
Sequence of Endothelin-1 receptor (Homo sapiens) (P25101 whole entry): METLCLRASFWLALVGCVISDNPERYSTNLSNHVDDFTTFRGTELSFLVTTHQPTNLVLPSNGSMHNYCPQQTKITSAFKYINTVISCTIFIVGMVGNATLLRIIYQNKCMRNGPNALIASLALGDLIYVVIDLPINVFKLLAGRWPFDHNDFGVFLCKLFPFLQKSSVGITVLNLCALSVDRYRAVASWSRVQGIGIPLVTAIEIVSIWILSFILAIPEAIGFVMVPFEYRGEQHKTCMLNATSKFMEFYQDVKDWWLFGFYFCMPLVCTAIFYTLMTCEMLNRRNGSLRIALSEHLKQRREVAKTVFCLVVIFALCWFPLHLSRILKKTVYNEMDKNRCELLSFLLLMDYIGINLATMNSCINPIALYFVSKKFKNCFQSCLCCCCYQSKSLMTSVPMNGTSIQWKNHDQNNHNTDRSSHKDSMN
Sequence of Histone-lysine N-methyltransferase PRDM9 (Homo sapiens) (Q9NQV7 whole entry): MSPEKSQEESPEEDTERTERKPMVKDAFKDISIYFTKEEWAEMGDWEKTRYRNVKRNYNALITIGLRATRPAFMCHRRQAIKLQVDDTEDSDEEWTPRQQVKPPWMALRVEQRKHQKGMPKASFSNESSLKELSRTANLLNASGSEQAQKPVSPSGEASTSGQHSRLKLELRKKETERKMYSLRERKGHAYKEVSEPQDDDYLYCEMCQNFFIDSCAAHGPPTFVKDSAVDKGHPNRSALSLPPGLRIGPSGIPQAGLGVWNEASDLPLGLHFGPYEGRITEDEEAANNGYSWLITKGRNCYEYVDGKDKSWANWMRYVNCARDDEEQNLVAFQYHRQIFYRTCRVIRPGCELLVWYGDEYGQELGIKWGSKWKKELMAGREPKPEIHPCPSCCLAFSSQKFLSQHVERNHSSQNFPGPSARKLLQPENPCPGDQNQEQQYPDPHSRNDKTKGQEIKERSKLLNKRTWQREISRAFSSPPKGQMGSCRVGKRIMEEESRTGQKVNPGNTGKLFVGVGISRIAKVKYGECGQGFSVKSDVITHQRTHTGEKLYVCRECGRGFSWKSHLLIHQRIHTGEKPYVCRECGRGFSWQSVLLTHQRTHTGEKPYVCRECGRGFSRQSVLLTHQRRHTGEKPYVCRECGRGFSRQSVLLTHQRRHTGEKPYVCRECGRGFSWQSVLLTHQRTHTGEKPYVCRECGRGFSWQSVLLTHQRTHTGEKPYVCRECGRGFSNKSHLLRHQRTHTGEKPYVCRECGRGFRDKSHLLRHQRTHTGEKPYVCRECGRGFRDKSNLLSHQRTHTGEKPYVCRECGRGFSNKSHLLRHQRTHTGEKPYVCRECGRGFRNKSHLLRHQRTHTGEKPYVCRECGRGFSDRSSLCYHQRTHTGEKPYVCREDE
Sequence of Aurora kinase A (Homo sapiens) (O14965 whole entry): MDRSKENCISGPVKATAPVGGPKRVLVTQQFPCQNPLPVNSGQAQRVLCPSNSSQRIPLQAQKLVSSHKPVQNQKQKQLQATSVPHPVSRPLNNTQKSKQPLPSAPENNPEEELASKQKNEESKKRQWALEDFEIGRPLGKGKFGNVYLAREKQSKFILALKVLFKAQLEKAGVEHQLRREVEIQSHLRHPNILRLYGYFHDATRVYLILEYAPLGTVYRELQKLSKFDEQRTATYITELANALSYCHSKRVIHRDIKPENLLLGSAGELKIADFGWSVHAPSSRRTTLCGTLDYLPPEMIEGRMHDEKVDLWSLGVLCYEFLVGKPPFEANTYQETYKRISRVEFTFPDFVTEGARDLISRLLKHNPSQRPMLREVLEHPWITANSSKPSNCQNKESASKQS
Sequence of Histone-lysine N-methyltransferase SUV39H1 (Homo sapiens) (O43463 whole entry): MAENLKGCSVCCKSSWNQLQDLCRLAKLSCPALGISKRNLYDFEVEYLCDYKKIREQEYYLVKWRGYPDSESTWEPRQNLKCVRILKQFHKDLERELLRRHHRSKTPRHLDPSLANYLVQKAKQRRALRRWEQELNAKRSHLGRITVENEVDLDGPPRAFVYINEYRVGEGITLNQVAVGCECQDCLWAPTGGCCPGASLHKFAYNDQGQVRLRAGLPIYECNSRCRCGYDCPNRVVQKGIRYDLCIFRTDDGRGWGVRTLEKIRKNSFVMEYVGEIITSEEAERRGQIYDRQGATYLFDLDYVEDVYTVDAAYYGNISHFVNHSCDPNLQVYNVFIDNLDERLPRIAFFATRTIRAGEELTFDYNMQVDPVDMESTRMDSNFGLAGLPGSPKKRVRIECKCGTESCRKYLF
Sequence of 5-hydroxytryptamine receptor 1E (Homo sapiens) (P28566 whole entry): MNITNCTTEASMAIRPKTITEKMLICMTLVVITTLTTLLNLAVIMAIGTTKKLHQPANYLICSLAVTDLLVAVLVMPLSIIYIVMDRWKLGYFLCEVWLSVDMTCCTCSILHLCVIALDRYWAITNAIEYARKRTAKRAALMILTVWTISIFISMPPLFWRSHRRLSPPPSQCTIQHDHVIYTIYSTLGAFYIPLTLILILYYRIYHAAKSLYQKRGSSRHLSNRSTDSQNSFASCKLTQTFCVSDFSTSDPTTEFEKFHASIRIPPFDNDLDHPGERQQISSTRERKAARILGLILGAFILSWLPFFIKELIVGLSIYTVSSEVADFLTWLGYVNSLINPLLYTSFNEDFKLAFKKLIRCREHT

For `Clc1cc2c(NC3CCCC3)nnc(-c3ccncc3)c2cc1Cl`, the inhibition (in general, the relative decrease from the control value, in per cent) was 8% in assay [1]; 7% in [2]; -5% in assay [4]; -1% in assay [9]; -6% in assay [11]; -4% in assay [13]. Moreover, the inhibition in [18] is -4%; in assay [19], 1%; in assay [21], 0%; in assay [23], 3%; in assay [26], 7%; in assay [27] it was -7%. Besides, in assay [28], the inhibition was -3%. In addition, the inhibition result in the assay with U2OS [3], with U2OS [10], with U2OS [25] and in the assay with U2OS [31] was “Active” in each case. Besides, the inhibition entry (in assay [5]; in the assay listed under Homo sapiens [6]; in assay [7]; in assay [8]; in assay [12]; in assay [15]) was “inactive” throughout. The inhibition entry in assay [16], in [17], in [20], in assay [24] and in [30] was “inactive” each time. In addition, the result with U2OS [14], with HeLa and with U2OS [29] was Active. For the same molecule, the outcome in the assay with U2OS [22] was inactive.

`O=C(c1nnc(NC2CCCC2)c2cc(Cl)c(Cl)cc12)N1CCC(O)CC1`: the inhibition is -7% in assay [32], -5% in the assay filed under Homo sapiens [33] and 10% in [34].
